The values that follow come from US20100223737A1, “ORGANIC CATALYST WITH ENHANCED ENZYME COMPATIBLITY” (priority 2009, published 2010).

Type in all cases: biochemical
In assay [1] the test system is Termamyl, Duramyl and Natalase. Kind of assay: Organic Catalyst/Enzyme Compatibility Test, average of the three enzymes. As to conditions: ECV=(ECVter+ECVdur+ECVnat)/3; [Peracetic Acid]=5.0 ppm; [organic catalyst]=0.5 ppm.
For the next assay, the system named is Natalase. The experiment in a line: Organic Catalyst/Enzyme Compatibility Test (alpha amylase activity assay), Natalase. As to conditions: (Ac/Ab)x100; [Peracetic Acid]=5.0 ppm; [organic catalyst]=0.5 ppm; 40° C.; sample at 7 minutes 45 seconds.
Another assay has as its system Duramyl. The experiment in a line: Organic Catalyst/Enzyme Compatibility Test (alpha amylase activity assay), Duramyl. As to conditions: (Ac/Ab)x100; [Peracetic Acid]=5.0 ppm; [organic catalyst]=0.5 ppm; 40° C.; sample at 7 minutes 45 seconds.

Take “Sulfuric acid mono-[2-(3,4-dihydro-isoquinolin-2-yl)-1-(2-propylheptyloxymethyl)-ethyl]ester, internal salt [Entry 3]”: the “Enzyme Compatibility Values ECV” value in assay [1] turned out to be 99. Further, the “Enzyme Compatibility Values ECVnat” value in the assay on Natalase worked out at 99. Besides, the “Enzyme Compatibility Values ECVdur” value in the assay with Duramyl is 101.
Consider “Sulfuric acid mono-[2-(3,4-dihydro-isoquinolin-2-yl)-1-(2-butyloctyloxymethyl)-ethyl]ester, internal salt [Entry 4]”, for which the “Enzyme Compatibility Values ECV” value in assay [1] amounted to 101. For the same substance, the “Enzyme Compatibility Values ECVnat” value in the assay on Natalase turned out to be 102. Moreover, in the assay on Duramyl, the “Enzyme Compatibility Values ECVdur” value amounted to 101.
